Results: PMC11992225, “Antibacterial compounds against non-growing and intracellular bacteria” (npj Antimicrobials and Resistance, 2025)
≈ marks a conversion by molar mass, not a printed value. Where two headings read alike, the source gives them in different places.

How the values were obtained:
non-growing UPEC CFT073 [1] = experiment: Dose-dependent killing analysis (CFU spot-plating) of stationary-phase UPEC; assay type: cell-based, Escherichia coli; settings: E. coli in 1:4 CA-MHB (pH 7.4); for Δlog10(CFU/ml): average killing vs before treatment (8.977)
Experimental: To differentiate between these scenarios, we used CFU counting by agar plating to assess the bactericidal effect on non-growing bacteria. […] Conversely, if no significant reduction in CFU is observed, the regrowth delay is due to PAE without killing. […] Fluoroquinolones are known to cause PAE after treatment of growing bacterial cultures.
For survival analysis, bacteria were cultivated as described for the dose–response dilution-regrowth assay. Assays with UPEC were conducted at the CBCS screening facility using 96-well plates with a 200 μl sample volume, and compounds were dispensed using the Echo® (Labcyte) system. P. aeruginosa and S. aureus samples were treated according to the protocol used for the dilution-regrowth experiments. Treated samples were serially diluted 10-fold in PBS, and 10 μl drops were spot-plated onto rectangular LB agar plates using either a Beckman NXP robot (for UPEC) or an Integra VIAFLO96 electronic pipette (for P. aeruginosa and S. aureus). The LB agar plates were incubated overnight at 37 °C and scanned. Colonies were counted at the spots of the lowest dilution where individual colonies could be accurately distinguished. Each colony was manually marked on a separate image layer using the GNU Image Manipulation Program, and counted using NIST’s Integrated Colony Enumerator (NICE 1.4) software. The experiments were performed in three biological replicates.

non-growing UPEC CFT073 [2] = experiment: Dilution-regrowth assay (screen, hit validation, dose-response) on stationary-phase UPEC; assay type: cell-based, Escherichia coli; settings: for OD600 at 6hr, Mean: after dilution into drug-free medium; for EC50: E. coli, pH 7.4, regrowth delay of non-growing bacteria, 1:4 CA-MHB, 24 h treatment, OD600 6 h after 2500-fold dilution, read-out: EC50; for activity in the dilution-regrowth screen: non-growing UPEC, 20 μM
Experimental: The cultures were incubated for 24 h in non-baffled Erlenmeyer flasks at 37 °C with shaking at 200 rpm.
The high-throughput screening (HTS) procedure was based on the protocol by Hazan and colleagues[15] and conducted at the Chemical Biology Consortium Sweden (CBCS) screening facility. […] Each plate included eight wells with 200 nl of 10 mM gatifloxacin, finafloxacin, and kanamycin solutions, along with 8-wells containing 200 nl of DMSO as controls. After 24 h incubation,100 μl of the culture was dispensed into each well of the 384-well plates for screening at a final concentration of 20 μM. The plates were sealed with parafilm and incubated at 37 °C for 24 h in closed humidified boxes, with wet paper towels added to prevent evaporation. […] The plates were incubated at 37 °C for 6 h in humidified boxes, then OD600 was measured using a microplate reader.
For hit validation, bacteria were cultivated, and the dilution-regrowth assay was conducted following the same protocol used in the primary screen. Hit compounds were dispensed into 384-well plates using the Echo® (Labcyte) system, with 200, 100, or 50 nl of a 10 mM solution in DMSO added per well, yielding final screening concentrations of 20, 10, and 5 μM, respectively. OD600 values of regrowing samples were normalized to the mean OD600 of the drug-free control. The testing was conducted in two replicates.
For UPEC, dose–response analysis was conducted at the CBCS screening facility. Bacteria were cultivated, and the dilution-regrowth assay was performed according to the HTS protocol. Compounds were dispensed into 384-well plates using the Echo® (Labcyte) system, and regrowth was assessed by measuring OD600 after 6 h of incubation at 37 °C in humidified boxes. Three biological replicates were performed.
Statistical significance of the drug effects was assessed using a one-way ANOVA followed by Dunnett’s test, comparing each treatment to the drug-free control. Statistical significance of the differences in chemical characteristics between the hit compounds and the Prestwick library was assessed using a Mann–Whitney test. Statistical significance was set at P ≤ 0.05. A five-parameter logistic equation was used for asymmetric sigmoidal curve fitting and for EC50 and IC50 determination. The Venn diagram in Fig. 1F was prepared using BioVenn web application. Characteristics of the chemical and physical properties of Prestwick library compounds were obtained from Supplementary Table S1 from reference. Characteristics of the hit compounds not included in the Prestwick library were retrieved from the PubChem database.

S. flexneri 5a M90T = experiment: MIC in tryptic soy broth, S. flexneri; assay type: cell-based, Shigella flexneri
Experimental: (§1) Minimal inhibitory concentrations (MICs) were determined using a standard microdilution assay protocol. CA-MHB medium buffered with 40 mM HEPES (pH 7.4) was used to determine the MICs for UPEC, P. aeruginosa, and S. aureus. […] MICs for UPEC were also determined in LPM buffered with 30 mM MES (pH 5.5). For S. flexneri, MICs were determined in tryptic soy broth (TSB). The assay was performed in triplicates.

P. aeruginosa DSM1117 = experiment: MIC, standard microdilution assay, growing P. aeruginosa; assay type: cell-based, Pseudomonas aeruginosa; settings: P. aeruginosa, CA-MHB pH 7.4, read-out: MIC (μM) CA-MHB
Experimental: as §1

E. coli CFT073 (UPEC) = experiment: MIC, standard microdilution assay, growing UPEC; assay type: cell-based, Escherichia coli; settings: E. coli, pH 7.4
Experimental: as §1

S. aureus DSM2569 = experiment: MIC, standard microdilution assay, growing S. aureus; assay type: cell-based, Staphylococcus aureus; settings: Staphylococcus aureus, DSM2569; S. aureus; CA-MHB pH 7.4; read-out: MIC (μM) CA-MHB
Experimental: as §1

Compound: CCC[C@H](NC(=O)/C(C#N)=C/c1cccc(Br)n1)c1ccccc1 [Degrasyn]
- Log10(CFU/ml), Replicate #1 (non-growing UPEC CFT073 [1]; 0.25 μM): 9.301 Log10(CFU/ml)
- Log10(CFU/ml), Replicate #2 (non-growing UPEC CFT073 [1]; 0.25 μM): 8.699 Log10(CFU/ml)
- Log10(CFU/ml), Replicate #3 (non-growing UPEC CFT073 [1]; 0.25 μM): 9.079 Log10(CFU/ml)
- Δlog10(CFU/ml) (non-growing UPEC CFT073 [1]; 0.25 μM): -0.049 log10(CFU/ml)
- Log10(CFU/ml), Replicate #1 (non-growing UPEC CFT073 [1]; 0.5 μM): 9.279 Log10(CFU/ml)
- Log10(CFU/ml), Replicate #2 (non-growing UPEC CFT073 [1]; 0.5 μM): 8.505 Log10(CFU/ml)
- Log10(CFU/ml), Replicate #3 (non-growing UPEC CFT073 [1]; 0.5 μM): 8.602 Log10(CFU/ml)
- Δlog10(CFU/ml) (non-growing UPEC CFT073 [1]; 0.5 μM): 0.182 log10(CFU/ml)
- Log10(CFU/ml), Replicate #1 (non-growing UPEC CFT073 [1]; 1 μM): 9.204 Log10(CFU/ml)
- Log10(CFU/ml), Replicate #2 (non-growing UPEC CFT073 [1]; 1 μM): 8.477 Log10(CFU/ml)
- Log10(CFU/ml), Replicate #3 (non-growing UPEC CFT073 [1]; 1 μM): 9.204 Log10(CFU/ml)
- Δlog10(CFU/ml) (non-growing UPEC CFT073 [1]; 1 μM): 0.016 log10(CFU/ml)
- Log10(CFU/ml), Replicate #1 (non-growing UPEC CFT073 [1]; 2.5 μM): 9.204 Log10(CFU/ml)
- Log10(CFU/ml), Replicate #2 (non-growing UPEC CFT073 [1]; 2.5 μM): 8.845 Log10(CFU/ml)
- Log10(CFU/ml), Replicate #3 (non-growing UPEC CFT073 [1]; 2.5 μM): 8.301 Log10(CFU/ml)
- Δlog10(CFU/ml) (non-growing UPEC CFT073 [1]; 2.5 μM): 0.194 log10(CFU/ml)
- Log10(CFU/ml), Replicate #1 (non-growing UPEC CFT073 [1]; 5 μM): 8.954 Log10(CFU/ml)
- Log10(CFU/ml), Replicate #2 (non-growing UPEC CFT073 [1]; 5 μM): 6.778 Log10(CFU/ml)
- Log10(CFU/ml), Replicate #3 (non-growing UPEC CFT073 [1]; 5 μM): 7.176 Log10(CFU/ml)
- Δlog10(CFU/ml) (non-growing UPEC CFT073 [1]; 5 μM): 1.341 log10(CFU/ml)
- Log10(CFU/ml), Replicate #1 (non-growing UPEC CFT073 [1]; 10 μM): 6.623 Log10(CFU/ml)
- Log10(CFU/ml), Replicate #2 (non-growing UPEC CFT073 [1]; 10 μM): 6.699 Log10(CFU/ml)
- Log10(CFU/ml), Replicate #3 (non-growing UPEC CFT073 [1]; 10 μM): 6.532 Log10(CFU/ml)
- Δlog10(CFU/ml) (non-growing UPEC CFT073 [1]; 10 μM): 2.359 log10(CFU/ml)
- OD600 at 6hr, Mean (non-growing UPEC CFT073 [2]; E. coli in 1:4 CA-MHB (pH 7.4), 0.25 μM): 0.603
- OD600 at 6hr, Mean (non-growing UPEC CFT073 [2]; E. coli in 1:4 CA-MHB (pH 7.4), 0.5 μM): 0.604
- OD600 at 6hr, Mean (non-growing UPEC CFT073 [2]; E. coli in 1:4 CA-MHB (pH 7.4), 1 μM): 0.558
- OD600 at 6hr, Mean (non-growing UPEC CFT073 [2]; E. coli in 1:4 CA-MHB (pH 7.4), 2.5 μM): 0.295
- OD600 at 6hr, Mean (non-growing UPEC CFT073 [2]; E. coli in 1:4 CA-MHB (pH 7.4), 5 μM): 0.108
- OD600 at 6hr, Mean (non-growing UPEC CFT073 [2]; E. coli in 1:4 CA-MHB (pH 7.4), 10 μM): 0.069
- OD600 at 6hr, Mean (non-growing UPEC CFT073 [2]; E. coli in 1:4 CA-MHB (pH 7.4), 30 μM): 0.079
- OD600 at 6hr, Mean (non-growing UPEC CFT073 [2]; E. coli in LPM (pH 5.5), 0.25 μM): 0.554
- OD600 at 6hr, Mean (non-growing UPEC CFT073 [2]; E. coli in LPM (pH 5.5), 0.5 μM): 0.565
- OD600 at 6hr, Mean (non-growing UPEC CFT073 [2]; E. coli in LPM (pH 5.5), 1 μM): 0.575
- OD600 at 6hr, Mean (non-growing UPEC CFT073 [2]; E. coli in LPM (pH 5.5), 2.5 μM): 0.579
- OD600 at 6hr, Mean (non-growing UPEC CFT073 [2]; E. coli in LPM (pH 5.5), 5 μM): 0.583
- OD600 at 6hr, Mean (non-growing UPEC CFT073 [2]; E. coli in LPM (pH 5.5), 10 μM): 0.582
- OD600 at 6hr, Mean (non-growing UPEC CFT073 [2]; E. coli in LPM (pH 5.5), 30 μM): 0.588
- EC50 (non-growing UPEC CFT073 [2]): 2.22 µM
- MIC (μM) TSB (S. flexneri 5a M90T; S. flexneri, extracellular bacteria in TSB): >128 µM
- MIC (P. aeruginosa DSM1117): >80 µM
- MIC (E. coli CFT073 (UPEC); 1:4 diluted CA-MHB, read-out: MIC (μM) 1:4 CA-MHB): >80 µM
- MIC (μM) CA-MHB +PAβN (E. coli CFT073 (UPEC); CA-MHB with 10 μg/ml efflux pump inhibitor PaβN): >80 µM
- MIC (E. coli CFT073 (UPEC); CA-MHB, read-out: MIC (μM) CA-MHB): >80 µM

Compound: CC[C@H]1OC(=O)[C@H](C)C(=O)[C@H](C)[C@@H](O[C@@H]2O[C@H](C)C[C@H](N(C)C)[C@H]2O)[C@](C)(OC)C[C@@H](C)C(=O)[C@H](C)[C@H]2N(CCCCn3cnc(-c4cccnc4)c3)C(=O)O[C@]12C [telithromycin]
- activity in the dilution-regrowth screen (non-growing UPEC CFT073 [2]): no activity

Compound: CC[C@H]1OC(=O)C[C@@H](O)[C@H](C)[C@@H](O[C@@H]2O[C@H](C)[C@@H](O[C@H]3C[C@@](C)(O)[C@@H](O)[C@H](C)O3)[C@H](N(C)C)[C@H]2O)[C@@H](CC=O)C[C@@H](C)C(=O)/C=C/C(C)=C/[C@@H]1CO[C@@H]1O[C@H](C)[C@@H](O)[C@@H](OC)[C@H]1OC [Tylosin]
- EC50 (non-growing UPEC CFT073 [2]; Escherichia coli): 7.28 µM
- MIC (S. flexneri 5a M90T; Shigella flexneri, 5AM90T, read-out: MIC (μM) TSB): 128 µM (≈ 117 µg/mL)
- MIC (P. aeruginosa DSM1117; Pseudomonas aeruginosa, DSM1117): > 160 µM
- MIC (S. aureus DSM2569): 1 µM (≈ 0.916 µg/mL)
- MIC (E. coli CFT073 (UPEC); Escherichia coli, 1:4 diluted CA-MHB, read-out: MIC (μM) 1:4 CA-MHB): 160 µM (≈ 147 µg/mL)
- MIC (E. coli CFT073 (UPEC); Escherichia coli, CA-MHB, read-out: MIC (μM) CA-MHB): 160 µM (≈ 147 µg/mL)

Compound: colistin
- activity in the dilution-regrowth screen (non-growing UPEC CFT073 [2]): not identified as hits
